For one assay, the target named is T1, AChE (from electric eel) (Electrophorus electricus, UniProt O42275).
T1 construct: purchased Sigma-Aldrich
The experiment in a line: biochemical. To be noted: eeAChE; for inhibition at 100 µM: compound at 100 μM, read-out: AChE inhibition rate (%) in 100 μM; for IC50: mean ± spread.

Assay [1] concerns the target butyrylcholinesterase (BuChE, from equine serum) (Equus caballus, UniProt P81908). As to the kind of experiment: biochemical. Particulars: eqBuChE; mean ± spread.

T1 sequence (O42275 24-633): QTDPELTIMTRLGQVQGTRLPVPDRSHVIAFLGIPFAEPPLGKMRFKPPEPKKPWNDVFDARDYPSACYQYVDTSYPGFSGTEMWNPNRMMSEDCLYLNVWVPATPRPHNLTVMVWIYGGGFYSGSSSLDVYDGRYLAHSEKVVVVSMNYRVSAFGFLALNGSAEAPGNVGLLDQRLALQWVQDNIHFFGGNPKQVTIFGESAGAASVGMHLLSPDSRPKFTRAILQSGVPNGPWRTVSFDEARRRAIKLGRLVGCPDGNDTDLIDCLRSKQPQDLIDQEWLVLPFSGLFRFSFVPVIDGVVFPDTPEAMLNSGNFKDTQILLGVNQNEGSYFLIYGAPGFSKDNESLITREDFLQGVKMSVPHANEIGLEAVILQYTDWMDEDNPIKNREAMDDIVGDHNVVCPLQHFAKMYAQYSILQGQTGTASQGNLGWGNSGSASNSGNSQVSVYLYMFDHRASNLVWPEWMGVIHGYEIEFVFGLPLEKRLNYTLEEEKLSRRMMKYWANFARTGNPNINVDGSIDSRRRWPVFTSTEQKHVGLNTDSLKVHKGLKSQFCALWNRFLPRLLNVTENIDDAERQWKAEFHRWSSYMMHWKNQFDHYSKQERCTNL
Sequence of butyrylcholinesterase (BuChE, from equine serum) (P81908 whole entry): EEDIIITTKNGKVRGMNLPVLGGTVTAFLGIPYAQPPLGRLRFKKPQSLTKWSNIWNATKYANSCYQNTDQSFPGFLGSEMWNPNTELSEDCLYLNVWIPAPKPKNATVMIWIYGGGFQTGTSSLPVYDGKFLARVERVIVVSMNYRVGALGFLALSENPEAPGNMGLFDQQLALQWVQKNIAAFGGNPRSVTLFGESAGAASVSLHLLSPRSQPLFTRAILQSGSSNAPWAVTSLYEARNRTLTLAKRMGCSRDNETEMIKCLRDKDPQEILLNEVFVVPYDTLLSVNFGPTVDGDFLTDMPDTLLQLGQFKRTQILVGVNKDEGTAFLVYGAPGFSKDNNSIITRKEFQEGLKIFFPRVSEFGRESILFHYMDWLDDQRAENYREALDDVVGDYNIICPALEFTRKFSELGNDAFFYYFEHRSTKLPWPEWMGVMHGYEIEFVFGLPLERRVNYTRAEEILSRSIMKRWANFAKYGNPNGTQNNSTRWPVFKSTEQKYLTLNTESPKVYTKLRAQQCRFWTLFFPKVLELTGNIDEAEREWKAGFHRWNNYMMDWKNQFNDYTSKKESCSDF

For orientation: inhibition means the drop in the measured response relative to a control, in per cent. By IC50 is commonly meant the midpoint of a concentration-inhibition curve. A low value points to greater potency. As to `COc1ccc2[nH]c3c4c(c(C=O)cc3c2c1)OC(C)(C)C=C4` [Clau F, Claulansine F, reference compound], the inhibition at 100 µM at AChE (from electric eel) was 28.2 ± 2.11%. The IC50 in assay [1] turned out to be 64.3 ± 7.52 µM.
`CC1(C)C=Cc2c(c(/C=C/C(=O)NC3CCN(Cc4ccccc4)CC3)cc3c2[nH]c2ccc(C(C)(C)C)cc23)O1` [Compound 6aa, (E)-N-(1-Benzylpiperidin-4-yl)-3-(8-(tert-butyl)-3,3-dimethyl-3,11-dihydropyrano[3,2-a]carbazol-5-yl)acrylamide]: the IC50 against AChE (from electric eel) was 51.9 ± 2.24 µM; in assay [1], 22.9 ± 1.14 µM.
`CC1(C)C=Cc2c(c(/C=C/C(=O)NC3CCN(Cc4ccccc4F)CC3)cc3c2[nH]c2ccc(C(C)(C)C)cc23)O1` [Compound 6ab, (E)-3-(8-(tert-Butyl)-3,3-dimethyl-3,11-dihydropyrano[3,2-a]carbazol-5-yl)-N-(1-(2-fluorobenzyl)piperidin-4-yl)acrylamide]: the inhibition at 100 µM at AChE (from electric eel) was 36.16 ± 0.31%. For the same compound, the 50% inhibitory concentration (IC50) in assay [1] came out at 35.9 ± 5.13 µM.
For the compound `Cc1ccccc1CN1CCC(NC(=O)/C=C/c2cc3c([nH]c4ccc(C(C)(C)C)cc43)c3c2OC(C)(C)C=C3)CC1` [Compound 6ac, (E)-3-(8-(tert-Butyl)-3,3-dimethyl-3,11-dihydropyrano[3,2-a]carbazol-5-yl)-N-(1-(2-methylbenzyl)piperidin-4-yl)acrylamide], the inhibition at 100 µM on AChE (from electric eel) turned out to be 50.9 ± 2.76%. In assay [1], half-maximal inhibition (IC50) was put at 34.3 ± 0.69 µM.
For `CC1(C)C=Cc2c(c(/C=C/C(=O)NC3CCN(Cc4ccccc4Cl)CC3)cc3c2[nH]c2ccc(C(C)(C)C)cc23)O1` [Compound 6ad, (E)-3-(8-(tert-Butyl)-3,3-dimethyl-3,11-dihydropyrano[3,2-a]carbazol-5-yl)-N-(1-(2-chlorobenzyl)piperidin-4-yl)acrylamide], in that order: 42.5 ± 6.12% and 38.8 ± 2.48 µM.
On the same counts, the results for `COc1ccc2[nH]c3c4c(c(/C=C/C(=O)NC5CCN(Cc6ccccc6)CC5)cc3c2c1)OC(C)(C)C=C4` [Compound 6ae, (E)-N-(1-Benzylpiperidin-4-yl)-3-(8-methoxy-3,3-dimethyl-3,11-dihydropyrano[3,2-a]carbazol-5-yl)acrylamide] are 20.4 ± 7.35% and 69.1 ± 8.51 µM.
Regarding `COc1ccc2[nH]c3c4c(c(/C=C/C(=O)NC5CCN(Cc6ccccc6F)CC5)cc3c2c1)OC(C)(C)C=C4` [Compound 6af, (E)-N-(1-(2-Fluorobenzyl)piperidin-4-yl)-3-(8-methoxy-3,3-dimethyl-3,11-dihydropyrano[3,2-a]carbazol-5-yl)acrylamide], the inhibition at 100 µM on AChE (from electric eel) worked out at 34.2 ± 10.7%. Further, the IC50 in assay [1] stood at 24.5 ± 1.94 µM.
For `COc1ccc2[nH]c3c4c(c(/C=C/C(=O)NC5CCN(Cc6ccccc6C)CC5)cc3c2c1)OC(C)(C)C=C4` [Compound 6ag, (E)-3-(8-Methoxy-3,3-dimethyl-3,11-dihydropyrano[3,2-a]carbazol-5-yl)-N-(1-(2-methylbenzyl)piperidin-4-yl)acrylamide], in that order: 36.8 ± 1.25% and 26.4 ± 4.51 µM.
In the case of `COc1ccc2[nH]c3c4c(c(/C=C/C(=O)NC5CCN(Cc6ccccc6Cl)CC5)cc3c2c1)OC(C)(C)C=C4` [Compound 6ah, (E)-N-(1-(2-Chlorobenzyl)piperidin-4-yl)-3-(8-methoxy-3,3-dimethyl-3,11-dihydropyrano[3,2-a]carbazol-5-yl)acrylamide], the inhibition at 100 µM on AChE (from electric eel) was determined as 40 ± 1.4%. In assay [1], this compound had an IC50 of 18 ± 2.27 µM.
As to `CC1(C)C=Cc2c(c(/C=C/C(=O)NCC3CCN(Cc4ccccc4)CC3)cc3c2[nH]c2ccc(C(C)(C)C)cc23)O1` [Compound 6ba, (E)-N-((1-Benzylpiperidin-4-yl)methyl)-3-(8-(tert-butyl)-3,3-dimethyl-3,11-dihydropyrano[3,2-a]carbazol-5-yl)acrylamide], the IC50 amounted to 4.62 ± 0.28 µM against AChE (from electric eel) and 12.3 ± 0.66 µM in assay [1].
With `Cc1ccccc1CN1CCC(CNC(=O)/C=C/c2cc3c([nH]c4ccc(C(C)(C)C)cc43)c3c2OC(C)(C)C=C3)CC1` [Compound 6bc, (E)-3-(8-(tert-Butyl)-3,3-dimethyl-3,11-dihydropyrano[3,2-a]carbazol-5-yl)-N-((1-(2-methylbenzyl)piperidin-4-yl)methyl)acrylamide], the results for the IC50 (at AChE (from electric eel); in assay [1]) were 4.26 ± 0.22 µM and 19 ± 0.94 µM, respectively.
Take `COc1ccc2[nH]c3c4c(c(/C=C/C(=O)NCC5CCN(Cc6ccccc6)CC5)cc3c2c1)OC(C)(C)C=C4` [Compound 6bg, (E)-N-((1-Benzylpiperidin-4-yl)methyl)-3-(8-methoxy-3,3-dimethyl-3,11-dihydropyrano[3,2-a]carbazol-5-yl)acrylamide]: the IC50 against AChE (from electric eel) came out at 27.7 ± 5.15 µM; in assay [1], 74.9 ± 3.21 µM.
For `COc1ccc2[nH]c3c4c(c(/C=C/C(=O)NCC5CCN(Cc6ccccc6F)CC5)cc3c2c1)OC(C)(C)C=C4` [Compound 6bh, (E)-N-((1-(2-Fluorobenzyl)piperidin-4-yl)methyl)-3-(8-methoxy-3,3-dimethyl-3,11-dihydropyrano[3,2-a]carbazol-5-yl)acrylamide], in that order: 23.6 ± 8.31 µM and 31.5 ± 3.88 µM.
On to `COc1ccc2[nH]c3c4c(c(/C=C/C(=O)NCC5CCN(Cc6ccccc6C)CC5)cc3c2c1)OC(C)(C)C=C4` [Compound 6bi, (E)-3-(8-Methoxy-3,3-dimethyl-3,11-dihydropyrano[3,2-a]carbazol-5-yl)-N-((1-(2-methylbenzyl)piperidin-4-yl)methyl)acrylamide], for which the 50% inhibitory concentration (IC50) at AChE (from electric eel) turned out to be 58.4 ± 1.79 µM; in assay [1], 32.8 ± 0.5 µM.
On the same counts, the results for `COc1ccc2[nH]c3c4c(c(/C=C/C(=O)NCC5CCN(Cc6ccccc6Cl)CC5)cc3c2c1)OC(C)(C)C=C4` [Compound 6bj, (E)-N-((1-(2-Chlorobenzyl)piperidin-4-yl)methyl)-3-(8-methoxy-3,3-dimethyl-3,11-dihydropyrano[3,2-a]carbazol-5-yl)acrylamide] are 91.1 ± 4.41 µM and 37.6 ± 0.56 µM.
On the same counts, the results for `CC1(C)C=Cc2c(c(/C=C/C(=O)NCCC3CCN(Cc4ccccc4)CC3)cc3c2[nH]c2ccc(C(C)(C)C)cc23)O1` [Compound 6ca, (E)-N-(2-(1-Benzylpiperidin-4-yl)ethyl)-3-(8-(tert-butyl)-3,3-dimethyl-3,11-dihydropyrano[3,2-a]carbazol-5-yl)acrylamide] are 9 ± 0.86 µM and 23.4 ± 0.95 µM.
On the same counts, the results for `CC1(C)C=Cc2c(c(/C=C/C(=O)NCCC3CCN(Cc4ccccc4F)CC3)cc3c2[nH]c2ccc(C(C)(C)C)cc23)O1` [Compound 6cb, (E)-3-(8-(tert-Butyl)-3,3-dimethyl-3,11-dihydropyrano[3,2-a]carbazol-5-yl)-N-(2-(1-(2-fluorobenzyl)piperidin-4-yl)ethyl)acrylamide] are 10.7 ± 0.2 µM and 19.1 ± 2.04 µM.
For `Cc1ccccc1CN1CCC(CCNC(=O)/C=C/c2cc3c([nH]c4ccc(C(C)(C)C)cc43)c3c2OC(C)(C)C=C3)CC1` [Compound 6cc, (E)-3-(8-(tert-Butyl)-3,3-dimethyl-3,11-dihydropyrano[3,2-a]carbazol-5-yl)-N-(2-(1-(2-methylbenzyl)piperidin-4-yl)ethyl)acrylamide], the IC50 against AChE (from electric eel) was determined as 14.3 ± 0.36 µM; in assay [1] it was 33.8 ± 0.51 µM.
Turning to `CC1(C)C=Cc2c(c(/C=C/C(=O)NCCC3CCN(Cc4ccccc4Cl)CC3)cc3c2[nH]c2ccc(C(C)(C)C)cc23)O1` [Compound 6cd, (E)-3-(8-(tert-Butyl)-3,3-dimethyl-3,11-dihydropyrano[3,2-a]carbazol-5-yl)-N-(2-(1-(2-chlorobenzyl)piperidin-4-yl)ethyl)acrylamide], the IC50 against AChE (from electric eel) is 17 ± 1.51 µM; in assay [1], 17.3 ± 4.82 µM.
On the same counts, the results for `COc1ccc2[nH]c3c4c(c(/C=C/C(=O)NCCC5CCN(Cc6ccccc6)CC5)cc3c2c1)OC(C)(C)C=C4` [Compound 6ce, (E)-N-(2-(1-Benzylpiperidin-4-yl)ethyl)-3-(8-methoxy-3,3-dimethyl-3,11-dihydropyrano[3,2-a]carbazol-5-yl)acrylamide] are 41.7 ± 1.22 µM and 26.4 ± 1.4 µM.
For `COc1ccc2[nH]c3c4c(c(/C=C/C(=O)NCCC5CCN(Cc6ccccc6F)CC5)cc3c2c1)OC(C)(C)C=C4` [Compound 6cf, (E)-N-(2-(1-(2-Fluorobenzyl)piperidin-4-yl)ethyl)-3-(8-methoxy-3,3-dimethyl-3,11-dihydropyrano[3,2-a]carbazol-5-yl)acrylamide], in that order: 54.8 ± 7.96 µM and 18 ± 3.35 µM.
As to `COc1ccc2[nH]c3c4c(c(/C=C/C(=O)NCCC5CCN(Cc6ccccc6C)CC5)cc3c2c1)OC(C)(C)C=C4` [Compound 6cg, (E)-3-(8-Methoxy-3,3-dimethyl-3,11-dihydropyrano[3,2-a]carbazol-5-yl)-N-(2-(1-(2-methylbenzyl)piperidin-4-yl)ethyl)acrylamide], the 50% inhibitory concentration (IC50) was found to be 73 ± 1.93 µM against AChE (from electric eel) and 26.7 ± 1.76 µM in assay [1].
On the same counts, the results for `COc1ccc2[nH]c3c4c(c(/C=C/C(=O)NCCC5CCN(Cc6ccccc6Cl)CC5)cc3c2c1)OC(C)(C)C=C4` [Compound 6ch, (E)-N-(2-(1-(2-Chlorobenzyl)piperidin-4-yl)ethyl)-3-(8-methoxy-3,3-dimethyl-3,11-dihydropyrano[3,2-a]carbazol-5-yl)acrylamide] are 24.6 ± 2.1 µM and 24.2 ± 4.78 µM.
